Test results as given in patent US12263349B2, “Method of treatment of biological surfaces” (Koite Health Oy, priority 2018, dated 2025).
“Also recorded” adds a separate entry of the source.

Key:
[1] = tested on: Streptococcus mutans; assay: Bacteria plate study: antibacterial effect of 405 nm light compared to PDT; type: cell-based; conditions: FIG. 6
[2] = tested on: Streptococcus mutans biofilm; assay: Streptococcus mutans monospecies biofilm model, PDT with indocyanine green, viability by serial dilution CFU; type: cell-based, Streptococcus mutans (ATCC 25175)
Procedure: In a third series of test, the adaptability of Streptococcus mutans biofilms to multi and single wavelength PDT treatments, respectively, was compared.
Two separate monospecies biofilm model experiments were performed to study the effect of reoccurring photodynamic therapy on biofilm formation. The Streptococcus mutans biofilm experiments were divided in different classes based on biofilm age and the therapy given.
The one-time PDT treatment was performed for 1 day, 2 days and 4 days old biofilms. […] The viability of the bacteria was assessed by serial dilution CFU method which was performed after the last photodynamic therapy treatment.
Streptococcus mutans (ATCC 25175) bacteria was grown over 18 h in growth chamber (36° C., 5% CO2) in BHI-broth (Bio-Rad 3564014). The resulting bacteria suspension was diluted with 0.9% NaCl suspension to optical density of 0.46.
Biofilm was grown on bottom of well plate by adding 100 μl diluted Streptococcus mutans suspension in each well with 100 μl of BHI-broth growth medium. The bacteria plate was incubated in growth chamber (36 Celsius, 5% CO2) and BHI-broth medium changed daily.
Before the light exposure, the growth medium was replaced with indocyanine green suspension which was let to incubate in dark in room temperature for 10 minutes. After the incubation the biofilm was washed twice with 0.9% NaCl solution. The treatment time was calculated from desired light amount and known intensity.
The light exposure was performed by placing the well plate under known LED light source. The given light intensity was analyzed with Thorlabs PM100D and S121C sensor head. Treatment time was changed to result in desired light amount. […]
The first experiment of continuous treatment of Streptococcus biofilm with PDT was completed by using 250 μg/ml ICG with 810 nm light. Different age biofilms of 1 day, 2 days and 4 days were grown, and the treatment was given once to each biofilm to evaluated the effect of single time treatment to differently aged biofilms. […]

[3] = tested on: Streptococcus mutans biofilm; assay: Potentiation of chlorhexidine with dual wavelength PDT; type: cell-based; conditions: high and low energy photons with photosensitizer; FIG. 3
Text: Treatment can be combined with topic use of antibiotics and disinfectants for synergist antipathogen effect. For example, the use phototherapy with chlorhexidine to target biofilms is new to oral disinfection. The results of dual wavelength photodynamic therapy with chlorhexidine against Streptococcus mutans biofilm shown in appendix III are completely new. […] The effectivity is based on photon and anionic photosensitizer ability to penetrate deeper into biofilm and provide efficient bacteria killing inside the biofilm as well as on the surface. The chlorhexidine effect is mostly present only on the surface of the biofilm. High energy photons reduce the biofilm EPS matrix formation that further increases the chlorhexidine effectivity in subsequent treatments. In a second series of tests, potentiation of chlorhexidine with dual wavelength PDT was evaluated.

[4] = tested on: monospecies biofilm of Streptococcus sobrinus; conditions: biofilm versus planktonic form; cited from earlier work

Compound: CC1(C)C(/C=C/C=C/C=C/C=C2\N(CCCCS(=O)(=O)O)c3ccc4ccccc4c3C2(C)C)=[N+](CCCCS(=O)(=O)[O-])c2ccc3ccccc3c21 [ICG, Indocyanine green]
- light dose resulting in complete inhibition of Streptococcus mutans growth [1]: 4 J/cm^2
- effect of PDT treatment on biofilm (CFU), every day treated ([2]; 250 μg/ml ICG with 810 nm light (single wavelength), 4 days old biofilm treated every day): poor treatment effect; also recorded: failed to achieve strong bacteria killing
- effect of PDT treatment on biofilm (CFU), treatment given once ([2]; 250 μg/ml ICG with 810 nm light, single treatment of 1 day, 2 days and 4 days old biofilms): strong effect of PDT treatment
- bacteria killing with double wavelength PDT, every day therapy versus day 4 only ([2]; ICG, 810 nm combined with 405 nm light, 4 days old biofilm): No significant difference of bacteria killing; also recorded: no bacteria biofilm adaptation to the treatment was observed

Compound: [H]/N=C(\N/C(=N/[H])NCCCCCCNC(=N)NC(=N)Nc1ccc(Cl)cc1)Nc1ccc(Cl)cc1 [chlorhexidine]
- antimicrobial effect of chlorhexidine combined with multi wavelength PDT versus reference and one wavelength [3]: increased substantially the antibacterial effect; also recorded: much stronger effect
- times greater concentration needed to kill biofilm than planktonic counterpart [4]: 100

Compound: amine fluoride
- times greater concentration needed to kill biofilm than planktonic counterpart [4]: 100
